Series [1] concerns the target T1, Recombinant M. tuberculosis MbtI (Mycobacterium tuberculosis, UniProt P9WFX1).
T1 construct: made in house
Put plainly: MbtI enzymatic assay (fluorimetric). The format is biochemical. As to conditions: for IC50: MbtI activity, calculated for compounds showing %RA < 20; for remaining activity at 100 µM / % RA (percentage of residual enzymatic activity): compound at 100 μM, 50 µM chorismic acid; for remaining activity at 100 µM: read-out: % RA (percentage of residual enzymatic activity). The protocol:
Recombinant M. tuberculosis MbtI was produced and purified, and enzyme activity determined as previously reported. All the reactions were performed at 37 °C, in a final volume of 400 μL of 50 mM Hepes pH 7.5, 5 mM MgCl2, containing 1–2 μM MbtI, by the addition of chorismic acid, and monitored using a Perkin Elmer LS3 fluorimeter (Ex. λ = 305 nm, Em. λ = 420 nm). […] IC50 values were determined by measuring the activity at different concentrations of the compound, and using the following equation with GraphPad software:(1) A[I] =A[0] × 1−[I]/[I]+IC50
where A[I] is the activity at inhibitor concentration [I] and A[0] is the activity in the absence of the inhibitor.

The subject of series [2] is M. bovis BCG. Put plainly: microbe, parasite or virus in culture. As to conditions: iron-limiting chelated Sauton's medium, REMA, 15 days. The format is cell-based.
The subject of series [3] is M. bovis BCG. Particulars: previous lead; cited from earlier work.
In series [4] the test system is platelet (PLT), red blood cells (RBC), and white blood cells (WBC). The experiment in a line: Blood cell count in whole blood of healthy volunteers. The format is cell-based, human. Particulars: 100 nM, 500 nM, 1 µM, up to 3 h, room temperature. The method, then:
(§1) Whole blood (WB), drawn with a 19-gauge needle without venous stasis into sodium citrate (0.129M, 1/10 volume/volume)-containing tubes (Vacutainer, Becton Dickinson), discarding the first 4 mL, was incubated with 1f (100 nM, 500 nM, and 1000 nM) or with solvent (DMSO; final dilution: 0.01%) up to 3 h at room temperature. Untreated (NT) WB of each healthy volunteer was used as a comparison.
(§2) PLT, RBC, and WBC counts were assessed at 0, 15, 30, 45, 60, 120 min and 3 h after the addition of 1f or solvent using Sysmex XE-2100 Automated Hematology Analyzer. Data were reported as count ± SD of each cell population. To evaluate the effect of 1f on platelet activation, conventional platelet activation markers [P-selectin and activated glycoprotein IIbIIIa (aGPIIbIIIa)], as well as platelet-associated tissue factor (TF) expression, were analyzed by WB flow cytometry as previously described at 0, 30 and 60 min after the addition of the highest concentration of 1f or solvent. […] Microvesicle formation, another well-known activation marker, was also assessed by flow cytometry at each time point after the addition of different concentrations of 1f or solvent. Fluorochrome-conjugated isotype controls were used to quantify the background labeling. […]

Series [5] relates to M. bovis BCG. The format is cell-based.
The subject of series [6] is platelets. The experiment in a line: Platelet activation assessment by whole blood flow cytometry. The format is cell-based, human. The protocol: as §1, §2
(In flow cytometry, cells or beads pass a laser one at a time.)

In series [7] the test system is M. bovis BCG. The format is cell-based. The source holds these as a separate data set.
The test system of series [8] is M. abscessus. The experiment in a line: Infection assay of MPI-2-eGFP mAMs with M. abscessus tdTomato. Format: cell-based.
Setting [9] is: Mycobacterium tuberculosis variant bovis BCG, BCG, 360 h.

≈ marks a conversion by molar mass, not a printed value. Where “and” joins values, the source holds several entries; their conditions need not be identical. Equal entries are not always repeated. Entries after “also recorded” stand apart in the source; their conditions may differ. Where two headings read alike, the source gives them in different places.

T1 sequence (P9WFX1 whole entry): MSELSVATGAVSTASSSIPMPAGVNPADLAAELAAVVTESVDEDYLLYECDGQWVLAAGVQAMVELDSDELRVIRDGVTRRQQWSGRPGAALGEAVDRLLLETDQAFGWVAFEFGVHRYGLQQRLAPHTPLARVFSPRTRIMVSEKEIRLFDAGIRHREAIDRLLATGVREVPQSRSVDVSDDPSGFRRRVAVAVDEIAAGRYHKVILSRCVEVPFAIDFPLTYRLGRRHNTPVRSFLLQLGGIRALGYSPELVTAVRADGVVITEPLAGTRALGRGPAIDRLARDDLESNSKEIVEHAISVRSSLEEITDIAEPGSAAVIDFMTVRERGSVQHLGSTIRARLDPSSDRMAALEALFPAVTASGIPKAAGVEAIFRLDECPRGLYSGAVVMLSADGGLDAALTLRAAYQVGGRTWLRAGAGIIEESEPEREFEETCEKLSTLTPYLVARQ

A word on the IC50: it is the concentration needed to halve the response being measured. For `N#Cc1cc(OCCNc2ccccc2)cc(-c2ccc(C(=O)O)o2)c1` [1g, 5-(3-Cyano-5-(2-(phenylamino)ethoxy)phenyl)furan-2-carboxylic acid], in [1], the IC50 is ~18 µM and 18 µM; the remaining activity at 100 µM was 9.3 ± 2.2%. Moreover, the MIC99 in [2] (setting [9]) was determined as 250 µM (≈ 87.1 µg/mL).
In general, melting point refers to the temperature, or range, at which the solid turns liquid. As to `N#Cc1cc(OCCc2ccccc2)cc(-c2ccc(C(=O)O)o2)c1` [1c, 5-(3-Cyano-5-phenethoxyphenyl)furan-2-carboxylic acid], the melting point worked out at 202 °C. In addition, in series [1], the IC50 is ~3 µM and 3 µM; the remaining activity at 100 µM was found to be 0.6 ± 0.5%. In series [2] (setting [9]), this compound had an MIC99 of 250 µM (≈ 83.3 µg/mL).
The compound `N#Cc1cc(Oc2ccc3ccccc3c2)cc(-c2ccc(C(=O)O)o2)c1` [1h, 5-(3-Cyano-5-(naphthalen-2-yloxy)phenyl)furan-2-carboxylic acid] registered a melting point of 226 °C. In series [1], the IC50 was 16.3 ± 1.2 µM and the remaining activity at 100 µM was 12.7 ± 2%. The compound further came in with an MIC99 in series [2] (setting [9]) of 125 µM (≈ 44.4 µg/mL).
As for `N#Cc1cc(OCc2ccccc2)cc(-c2ccc(C(=O)O)o2)c1` [1b, 5-(3-(Benzyloxy)-5-cyanophenyl)furan-2-carboxylic acid], the melting point stood at 187 °C. In series [1], the IC50 is 15.6 ± 1.2 µM and the remaining activity at 100 µM was found to be 1.2 ± 0.4%. This compound gave an MIC99 in [2] (setting [9]) of 250 µM (≈ 79.8 µg/mL).
For `N#Cc1cccc(-c2ccc(C(=O)O)o2)c1` [I, 5-(3-cyanophenyl)furan-2-carboxylic acid], the MIC99 in [3] was 250 µM (≈ 53.3 µg/mL).
For the compound `N#Cc1cc(OCCOc2ccccc2)cc(-c2ccc(C(=O)O)o2)c1` [1f, 5-(3-Cyano-5-(2-phenoxyethoxy)phenyl)furan-2-carboxylic acid], in series [1], the IC50 is 12.1 ± 2 µM and the remaining activity at 100 µM was determined as 5.5 ± 2.4%. Also, in [4], the “PLT, RBC, and WBC counts” value is “like untreated (NT) and DMSO-treated whole blood; also recorded: does not affect blood cell count; also recorded: no cytotoxicity against human cells”. In addition, in series [5], the “BCG_tdTomato fluorescence / eGFP in infected MPI-2_eGFP” value is on record as “did not detect a reduction in Tdtomato fluorescence nor an increase in eGFP; also recorded: did not detect a significant efficacy in killing intracellular bacteria”. In series [6] (1 µM (highest concentration), 0, 30, 60 min), the “platelet activation markers: P-selectin, monocyte-platelet and granulocyte-platelet aggregates, aGPIIbIIIa” value is given as “not affected”. In series [6] (1 µM, 0, 30, 60 min), the “platelet-associated Tissue Factor expression, microvesicle formation” value is recorded as “not influenced”. The compound further returned an MIC99 in [2] (setting [9]) of 63 µM (≈ 22 µg/mL). In addition, in [7] (CAS assay, M. bovis BCG in chelated Sauton's medium), the “minimal concentration that prevented the production of siderophores” value amounted to 32 µM. Besides, the “relation of antimycobacterial activity to inhibition of iron uptake (Universal CAS assay)” value in [7] (M. bovis BCG culture supernatants, 15 days) is reported as “correlated to the inhibition of iron uptake; also recorded: positively related to the inhibition of iron uptake”. In addition, in [8] (highest concentration tested (32 μM), plate reader), the “Mab_tdTomato load 3-days p.t with respect to the prior time point” value is on record as “significantly reduced”. In addition, the “intracellular Mab_tdTomato burden in infected cells (microscopy, image segmentation)” value in [8] (up to 32 μM, 2- and 3-days p.t) is “did not display a decrease in the Mab_tdTomato burden”. Besides, the “Mab infection clearance / Mab_tdTomato load in infected MPI-2_eGFP” value in series [8] (up to 32 μM, 2- and 3-days p.t, plate reader) is reported as “did not resolve Mab infection; also recorded: did not detect a significant efficacy in killing intracellular bacteria”.
On to `N#Cc1cc(Oc2ccccc2)cc(-c2ccc(C(=O)O)o2)c1` [1a, 5-(3-Cyano-5-phenoxyphenyl)furan-2-carboxylic acid], for which, in series [1], the IC50 is 23.1 ± 2.6 µM, the “% RA (percentage of residual enzymatic activity)” value worked out at 14.0 ± 4.1% and the remaining activity at 100 µM came out at 14%. Further, the MIC99 in [2] (setting [9]) worked out at 125 µM (≈ 38.2 µg/mL).
`N#Cc1cc(OCCCc2ccccc2)cc(-c2ccc(C(=O)O)o2)c1` [1d, 5-(3-Cyano-5-(3-phenylpropoxy)phenyl)furan-2-carboxylic acid] came in with a melting point of 186 °C. For the same compound, in series [1], the “% RA (percentage of residual enzymatic activity)” value is on record as 25.6 ± 5.8% and the remaining activity at 100 µM is around 25%.
As for `N#Cc1cc(Oc2ccc3cccnc3c2)cc(-c2ccc(C(=O)O)o2)c1` [1i, 5-(3-Cyano-5-(quinolin-7-yloxy)phenyl)furan-2-carboxylic acid], the melting point is 263 °C (dec.). Further, in series [1], the IC50 was 16.6 ± 1 µM and the remaining activity at 100 µM came to 13.9 ± 3.1%. The same compound returned an MIC99 in [2] (setting [9]) of 125 µM (≈ 44.5 µg/mL).
`N#Cc1cc(OC/C=C/c2ccccc2)cc(-c2ccc(C(=O)O)o2)c1` [1e, (E)-5-(3-(Cinnamyloxy)-5-cyanophenyl)furan-2-carboxylic acid] returned a melting point of 170 °C. Further, in series [1], the IC50 is 13.5 ± 1 µM and the remaining activity at 100 µM is 11.5 ± 1.7%. In [2] (setting [9]), this compound had an MIC99 of around 125 µM (≈ 43.2 µg/mL). The MIC99 in series [2] was 125 µM (≈ 43.2 µg/mL).
Take `N#Cc1cc(OCc2ccc3ccccc3c2)cc(-c2ccc(C(=O)O)o2)c1` [1j, 5-(3-Cyano-5-(naphthalen-2-ylmethoxy)phenyl)furan-2-carboxylic acid]: the melting point was 209 °C (dec.). In series [1], the IC50 is 34.8 ± 2.5 µM and the remaining activity at 100 µM was found to be 19.8 ± 6.5%. Also, the MIC99 in series [2] (setting [9]) amounted to 250 µM (≈ 92.3 µg/mL).

Values taken from article PMC9413995, “Synthesis and Assessment of the In Vitro and Ex Vivo Activity of Salicylate Synthase (Mbti) Inhibitors as New Candidates for the Treatment of Mycobacterial Infections” (Pharmaceuticals, 2022).
